Results: patent publication US8778951B2, “Heteroaryl compounds and their uses” (Novartis AG, priority 2009, dated 2014)

Molecular target: Cdk9/cyclinT1 (Homo sapiens (Human), UniProt P50750)
Assay: Cdk9/CyclinT1 IMAP Protocol (fluorescence polarization kinase assay)
Assay type: biochemical
Details: Table 2; generated using one of the two Cdk9/cyclinT1 assays (IMAP or Alpha Screen), not specified which; unit inferred
Experimental: Cdk9/CyclinT1 IMAP Protocol
The biological activity of the compounds of the invention can be determined using the assay described below.
Cdk9/cyclinT1 is purchased from Millipore, cat #14-685. The final total protein concentration in the assay 4 nM. […] The final concentration of peptide substrate is 100 nM. The ATP substrate (Adenosine-5′-triphosphate) is purchased from Roche Diagnostics, cat#1140965. The final concentration of ATP substrate is 6 uM. IMAP (Immobilized Metal Assay for Phosphochemicals) Progressive Binding reagent is purchased from Molecular Devices, cat#R8139. Fluorescence polarization (FP) is used for detection. The 5TAMRA-cdk7tide peptide is phosphorylated by Cdk9/cyclinT1 kinase using the ATP substrate. The Phospho-5TAMRA-cdk7tide peptide substrate is bound to the IMAP Progressive Binding Reagent. The binding of the IMAP Progressive Binding Reagent changes the fluorescence polarization of the 5TAMRA-cdk7tide peptide which is measured at an excitation of 531 nm and FP emission of 595 nm. Assays are carried out in 100 mM Tris, pH=7.2, mM MgCl2, 0.05% NaN3, 0.01% Tween-20, 1 mM dithiothreitol and 2.5% dimethyl sulfoxide. IMAP Progressive Binding Reagent is diluted 1:800 in 100% 1× Solution A from Molecular Devices, cat#R7285.
General protocol is as follows: To 10 ul of cdk9/cyclinT1, 0.5 ul of test compound in dimethyl sulfoxide is added. 5TAMRA-cdk7tide and ATP are mixed. 10 ul of the 5TAMRA-cdk7tide/ATP mix is added to start the reaction. The reaction is allowed to proceed for 4.5 hrs. 60 uL of IMAP Progressive Binding Reagent is added. After >1 hr of incubation, plates are read on the Envision 2101 from Perkin-Elmer. The assay is run in a 384-well format using black Corning plates, cat#3573.

Cdk9/cyclinT1, sequence (P50750 whole entry): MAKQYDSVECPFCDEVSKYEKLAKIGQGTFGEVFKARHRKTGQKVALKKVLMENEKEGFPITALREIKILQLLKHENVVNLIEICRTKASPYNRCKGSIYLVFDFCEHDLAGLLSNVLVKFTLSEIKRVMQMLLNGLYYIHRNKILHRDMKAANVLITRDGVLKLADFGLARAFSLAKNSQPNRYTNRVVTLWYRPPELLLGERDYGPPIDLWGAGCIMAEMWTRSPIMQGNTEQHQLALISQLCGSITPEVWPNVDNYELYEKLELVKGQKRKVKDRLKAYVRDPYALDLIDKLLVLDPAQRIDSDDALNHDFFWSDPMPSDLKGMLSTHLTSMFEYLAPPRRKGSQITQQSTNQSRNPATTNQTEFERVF
Cdk9/cyclinT1, sequence (O60563 whole entry partner): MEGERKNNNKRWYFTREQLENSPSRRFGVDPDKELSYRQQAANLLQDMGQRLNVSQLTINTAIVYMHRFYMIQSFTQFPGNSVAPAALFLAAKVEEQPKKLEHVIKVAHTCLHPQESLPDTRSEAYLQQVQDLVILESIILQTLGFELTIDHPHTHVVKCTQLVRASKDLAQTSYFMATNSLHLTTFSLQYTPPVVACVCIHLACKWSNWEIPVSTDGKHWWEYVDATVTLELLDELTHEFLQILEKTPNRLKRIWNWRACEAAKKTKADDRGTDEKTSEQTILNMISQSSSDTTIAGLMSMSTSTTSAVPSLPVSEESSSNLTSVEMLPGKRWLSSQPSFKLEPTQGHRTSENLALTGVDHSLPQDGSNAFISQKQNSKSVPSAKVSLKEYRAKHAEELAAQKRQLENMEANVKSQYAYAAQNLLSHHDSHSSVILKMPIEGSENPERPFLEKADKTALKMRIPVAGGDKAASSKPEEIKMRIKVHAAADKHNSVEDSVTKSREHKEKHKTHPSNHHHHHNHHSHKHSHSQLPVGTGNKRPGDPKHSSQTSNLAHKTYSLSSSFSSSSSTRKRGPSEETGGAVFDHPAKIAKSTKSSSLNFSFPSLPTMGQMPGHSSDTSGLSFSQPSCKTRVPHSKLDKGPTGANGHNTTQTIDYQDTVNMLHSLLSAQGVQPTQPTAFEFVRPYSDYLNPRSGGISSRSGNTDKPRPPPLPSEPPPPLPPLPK

IC50 [nM]	Structure (SMILES)
1	CC1(C)OC[C@@H](CN[C@H]2CC[C@H](Nc3cc(-c4nc(NCC5CCOCC5)ccc4Cl)c(Cl)cn3)CC2)O1 [Compound 320, 3,5′-dichloro-N2′-(trans-4-(((R)-2,2-dimethyl-1,3-dioxolan-4-yl)methyl)aminocyclohexyl)-N6-((tetrahydro-2H-pyran-4-yl)methyl)-2,4′-bipyridine-2′,6-diamine]
43.2	CN(CC1CCOCC1)c1cncc(-c2cc(N[C@H]3CC[C@H](CO)CC3)ncc2Cl)n1 [Compound 251]
7.95	Fc1cc(F)cc(CNc2cccc(-c3cc(N[C@H]4CC[C@H](N5CCCC5)CC4)ncc3Cl)n2)c1 [Compound 23, 5′-chloro-N6-(3,5-difluorobenzyl)-N2′-(trans-4-(pyrrolidin-1-yl)cyclohexyl)-2,4′-bipyridine-2′,6-diamine]
22.9	Clc1ccc(NCC2CCOCC2)nc1-c1ccnc(N[C@H]2CC[C@H](NC[C@H]3CCCO3)CC2)c1 [Compound 273]
7.94	OC[C@H]1CC[C@H](Nc2cc(-c3cccc(NCc4cccc(F)c4)n3)c(Cl)cn2)CC1 [Compound 181]
146	O[C@H]1CC[C@@H](Nc2cc(-c3cccc(NCC4CCOCC4)n3)c(Cl)cn2)CC1 [Compound 275]
4	CC1(CN[C@H]2CC[C@H](Nc3cc(-c4ccc(F)c(NCC5CCOCC5)n4)c(Cl)cn3)CC2)OCCO1 [Compound 333, 5′-chloro-5-fluoro-N2′-(trans-4-((2-methyl-1,3-dioxolan-2-yl)methyl)aminocyclohexyl)-N6-((tetrahydro-2H-pyran-4-yl)methyl)-2,4′-bipyridine-2′,6-diamine]
1	C[C@@H]1CC(CNc2cccc(-c3cc(N[C@H]4CC[C@H](N)CC4)ncc3Cl)n2)C[C@H](C)O1 (stereo partly drawn) [Compound 284, N2′-(trans-4-aminocyclohexyl)-5′-chloro-N6-(((2R,6S)-2,6-dimethyltetrahydro-2H-pyran-4-yl)methyl)-2,4′-bipyridine-2′,6-diamine]
0.49	CS(=O)(=O)CCN[C@H]1CC[C@H](Nc2cc(-c3ccc(F)c(NCC4CCOCC4)n3)c(Cl)cn2)CC1 [Compound 326]
12.9	N[C@H]1CC[C@H](Nc2cc(-c3cccc(NCc4ccccc4F)n3)c(Cl)cn2)CC1 [Compound 41]
23.2	N[C@H]1CC[C@H](Nc2cc(-c3cccc(NCc4ccc(OC(F)(F)F)cc4)n3)c(Cl)cn2)CC1 [Compound 54]
7.95	Fc1cccc(CNc2cccc(-c3cc(N[C@H]4CC[C@H](N5CCOCC5)CC4)ncc3Cl)n2)c1 [Compound 116]
133	N[C@H]1CC[C@H](Nc2cc(-c3cc(C(F)(F)F)cc(NCc4cccc(F)c4)n3)ccn2)CC1 [Compound 11, N2′-(trans-4-aminocyclohexyl)-N6-(3-fluorobenzyl)-4-(trifluoromethyl)-2,4′-bipyridine-2′,6-diamine]
142	O[C@H]1CC[C@H](Nc2cc(-c3cccc(NCC4COCCO4)n3)c(Cl)cn2)CC1 (stereo partly drawn) [Compound 135]
522	NC(=O)c1ccc(-c2cc(N[C@H]3CC[C@H](N)CC3)ncc2Cl)nc1NCc1cccc(F)c1 [Compound 138]
69	O=C(c1cccnc1)N1CCC(Nc2cc(-c3cccc(NCc4cccc(F)c4)n3)c(Cl)cn2)CC1 [Compound 87]
7.95	O[C@H]1CC[C@H](Nc2cc(-c3cccc(NCc4cccc(F)c4)n3)c(Cl)cn2)CC1 [Compound 114]
416	Fc1cc(F)cc(CNc2cccc(-c3cc(N[C@H]4CCCNC4)ncc3Cl)n2)c1 [Compound 98]

IC50 [nM]	Structure (SMILES)
173	Fc1cncc(CNc2cccc(-c3cc(NC4CCNCC4)ncc3Cl)n2)c1 [Compound 70]
1	COC[C@@H](C)N[C@H]1CC[C@H](Nc2cc(-c3cccc(NCC4(OC)CCOCC4)n3)c(Cl)cn2)CC1 [Compound 305]
4	CC(CS(C)(=O)=O)N[C@H]1CC[C@H](Nc2cc(-c3ccc(F)c(NCC4CCOCC4)n3)c(Cl)cn2)CC1 (stereo partly drawn) [Compound 319]
7.95	CN[C@H]1CC[C@H](Nc2cc(-c3cccc(NCc4cccc(F)c4)n3)c(Cl)cn2)CC1 [Compound 21, 5′-chloro-N6-(3-fluorobenzyl)-N2′-(trans-4-(methylamino)cyclohexyl)-2,4′-bipyridine-2′,6-diamine]
1	COC[C@@H](C)N[C@H]1CC[C@H](Nc2cc(-c3nc(NC[C@H]4CCCOC4)ccc3Cl)c(Cl)cn2)CC1 [Compound 327, 3,5′-dichloro-N2′-(trans-4-((R)-1-methoxypropan-2-yl-amino)cyclohexyl)-N6-(((R)-tetrahydro-2H-pyran-3-yl)methyl)-2,4′-bipyridine-2′,6-diamine]
336	Fc1cccc(CNc2cccc(-c3cc(N[C@@H]4CCCNC4)ncc3Cl)n2)c1 [Compound 91]
27.3	Fc1cccc(CNc2cccc(-c3cc(N[C@H]4CC[C@H](CN5CCCC5)CC4)ncc3Cl)n2)c1 [Compound 112]
124	NCCNc1cccc(-c2cc(N[C@H]3CC[C@H](O)CC3)ncc2Cl)n1 [Compound 117]
41.6	Fc1ccc(CNc2cccc(-c3cc(NC4CCNCC4)ncc3Cl)n2)cc1F [Compound 74]
99	[2H]C([2H])(Nc1cccc(-c2cc(N[C@H]3CC[C@H](NC[C@@H]4CCCO4)CC3)ncc2Cl)n1)C1CCOCC1 [Compound 317, 5′-chloro-N6-(dideutero-(tetrahydro-2H-pyran-4-yl)methyl)-N2′-(trans-4-(((S)-tetrahydrofuran-2-yl)methyl)aminocyclohexyl)-2,4′-bipyridine-2′,6-diamine]
13.5	N[C@H]1CC[C@H](Nc2cc(-c3cccc(NCC4CCCCCC4)n3)c(Cl)cn2)CC1 [Compound 75]
42.3	N[C@H]1CC[C@H](Nc2cc(-c3nc(NCC4CCOCC4)cnc3C(F)(F)F)c(Cl)cn2)CC1 [Compound 255, trans-N1-(5-chloro-4-(6-((tetrahydro-2H-pyran-4-yl)methyl)amino-3-(trifluoromethyl)pyrazin-2-yl)pyridin-2-yl)cyclohexane-1,4-diamine]
7.94	COCCN(C)[C@H]1CC[C@H](Nc2cc(-c3nc(NCC4CCOCC4)ccc3Cl)c(Cl)cn2)CC1 [Compound 272, 3,5′-dichloro-N2′-(trans-4-((2-methoxyethyl)(methyl)amino)cyclohexyl)-N6-((tetrahydro-2H-pyran-4-yl)methyl)-2,4′-bipyridine-2′,6-diamine]
17.1	NC[C@H]1CC[C@H](Nc2cc(-c3cccc(NCc4ccc(F)cc4)n3)c(Cl)cn2)CC1 [Compound 66]
136	CCS(=O)(=O)N1CCC(Nc2cc(-c3cccc(NCc4cccc(F)c4)n3)c(Cl)cn2)CC1 [Compound 6, 5′-chloro-N2′-(1-(ethylsulfonyl)piperidin-4-yl)-N6-(3-fluorobenzyl)-2,4′-bipyridine-2′,6-diamine]
7.95	NC[C@H]1CC[C@H](Nc2cc(-c3cccc(OCc4cccc(F)c4)n3)c(Cl)cn2)CC1 [Compound 9, N-(trans-4-(aminomethyl)cyclohexyl)-5′-chloro-6-(3-fluorobenzyloxy)-2,4′-bipyridin-2′-amine]
54.2	O=C(N[C@H]1CC[C@H](Nc2cc(-c3cccc(NCc4cccc(F)c4)n3)c(Cl)cn2)CC1)c1cccnc1 [Compound 81]
507	Fc1ccc(CNc2cccc(-c3cc(N[C@@H]4CCCNC4)ncc3Cl)n2)cc1F [Compound 94]
